1 molecule from patent US7964609B2, “Use of mGluR5 antagonists for the treatment of gerd” (AstraZeneca AB, priority 2002, dated 2011) can be followed below.

This experiment concerns transient lower esophageal sphincter relaxations (TLESRs). The experiment can be described thus: Screening for compounds active against TLESR, Barostat model (air infusion to an intragastric pressure of 10±1 mmHg). It is filed as in vivo, Adult Labrador retrievers. Conditions: dose 1 μmol/kg/h, infusion during 60 min. How it is done: Adult Labrador retrievers of both genders, trained to stand in a Pavlov sling, are used. Mucosa-to-skin esophagostomies are formed and the dogs are allowed to recover completely before any experiments are done. In brief, after fasting for approximately 17 h with free supply of water, a multilumen sleeve/sidehole assembly ([…], Adelaide, South Australia) is introduced through the esophagostomy to measure gastric, lower esophageal sphincter (LES) and esophageal pressures. The assembly is perfused with water using a low-compliance manometric perfusion pump ([…], Adelaide, South Australia). An air-perfused tube is passed in the oral direction to measure swallows, and an antimony electrode monitored pH, 3 cm above the LES. All signals are amplified and acquired on a personal computer at 10 Hz. When a baseline measurement free from fasting gastric/LES phase III motor activity has been obtained, placebo (0.9% NaCl) or test compound is administered intravenously (i.v., 0.5 ml/kg) in a foreleg vein. […] Immediately following the meal, air is insufflated at 40 ml/min. In an alternative model (Barostat model), the infusion of the nutrient meal is followed by air infusion at a rate of 500 ml/min until a intragastric pressure of 10±1 mmHg is obtained. […]

Take `N#Cc1cc(F)cc(-c2nc(-c3ccc(F)cn3)no2)c1` [3-fluoro-5-[3-(5-fluoropyridin-2-yl)-1,2,4-oxadiazol-5-yl]benzonitrile]: the “% INHIBITION ± SEM (N)” value is on record as 70 ± 4 (3) %.
